From ChEMBL document CHEMBL5465560, “Selectivity Literature for EUbOPEN Chemogenomic Library” (2024)
One block for each compound: values may come before it.

Tests used:
[1] = target: T1, Mitogen-activated protein kinase kinase kinase kinase 2 (Homo sapiens) (UniProt Q12851); test: Selectivity interaction (ActivX KiNativ screen (kinase selectivity in THP-1 cell lysates)) EUB0000639a MAP4K2; type: subcellular; settings: lysate, at 0.01 µM
T1 sequence (whole entry): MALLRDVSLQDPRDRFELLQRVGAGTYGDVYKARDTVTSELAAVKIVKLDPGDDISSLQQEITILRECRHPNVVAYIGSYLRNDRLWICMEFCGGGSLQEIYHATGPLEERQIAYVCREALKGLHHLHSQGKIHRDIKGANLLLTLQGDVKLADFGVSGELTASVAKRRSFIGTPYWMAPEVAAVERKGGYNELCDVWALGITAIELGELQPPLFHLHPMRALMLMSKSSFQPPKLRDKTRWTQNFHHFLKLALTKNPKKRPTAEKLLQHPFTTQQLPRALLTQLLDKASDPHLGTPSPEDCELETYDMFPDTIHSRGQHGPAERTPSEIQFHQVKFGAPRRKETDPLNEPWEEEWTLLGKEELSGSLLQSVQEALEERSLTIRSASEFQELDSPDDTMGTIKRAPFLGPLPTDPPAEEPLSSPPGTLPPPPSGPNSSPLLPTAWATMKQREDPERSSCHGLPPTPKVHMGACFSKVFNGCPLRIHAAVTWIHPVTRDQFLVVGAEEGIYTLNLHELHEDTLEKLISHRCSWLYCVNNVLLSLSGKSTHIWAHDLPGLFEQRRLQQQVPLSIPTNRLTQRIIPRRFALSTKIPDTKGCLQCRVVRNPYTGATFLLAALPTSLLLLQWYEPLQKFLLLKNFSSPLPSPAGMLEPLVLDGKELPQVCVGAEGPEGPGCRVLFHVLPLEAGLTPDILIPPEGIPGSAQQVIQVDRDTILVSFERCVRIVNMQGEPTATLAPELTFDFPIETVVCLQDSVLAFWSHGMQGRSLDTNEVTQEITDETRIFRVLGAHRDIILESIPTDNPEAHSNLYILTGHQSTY

[2] = target: Microtubule-associated serine/threonine-protein kinase 3 (Homo sapiens) (UniProt O60307); test: Selectivity interaction (ActivX KiNativ screen (kinase selectivity in THP-1 cell lysates)) EUB0000639a MAST3; type: subcellular; settings: lysate
Chain of Microtubule-associated serine/threonine-protein kinase 3 (Homo sapiens) (O60307 whole entry): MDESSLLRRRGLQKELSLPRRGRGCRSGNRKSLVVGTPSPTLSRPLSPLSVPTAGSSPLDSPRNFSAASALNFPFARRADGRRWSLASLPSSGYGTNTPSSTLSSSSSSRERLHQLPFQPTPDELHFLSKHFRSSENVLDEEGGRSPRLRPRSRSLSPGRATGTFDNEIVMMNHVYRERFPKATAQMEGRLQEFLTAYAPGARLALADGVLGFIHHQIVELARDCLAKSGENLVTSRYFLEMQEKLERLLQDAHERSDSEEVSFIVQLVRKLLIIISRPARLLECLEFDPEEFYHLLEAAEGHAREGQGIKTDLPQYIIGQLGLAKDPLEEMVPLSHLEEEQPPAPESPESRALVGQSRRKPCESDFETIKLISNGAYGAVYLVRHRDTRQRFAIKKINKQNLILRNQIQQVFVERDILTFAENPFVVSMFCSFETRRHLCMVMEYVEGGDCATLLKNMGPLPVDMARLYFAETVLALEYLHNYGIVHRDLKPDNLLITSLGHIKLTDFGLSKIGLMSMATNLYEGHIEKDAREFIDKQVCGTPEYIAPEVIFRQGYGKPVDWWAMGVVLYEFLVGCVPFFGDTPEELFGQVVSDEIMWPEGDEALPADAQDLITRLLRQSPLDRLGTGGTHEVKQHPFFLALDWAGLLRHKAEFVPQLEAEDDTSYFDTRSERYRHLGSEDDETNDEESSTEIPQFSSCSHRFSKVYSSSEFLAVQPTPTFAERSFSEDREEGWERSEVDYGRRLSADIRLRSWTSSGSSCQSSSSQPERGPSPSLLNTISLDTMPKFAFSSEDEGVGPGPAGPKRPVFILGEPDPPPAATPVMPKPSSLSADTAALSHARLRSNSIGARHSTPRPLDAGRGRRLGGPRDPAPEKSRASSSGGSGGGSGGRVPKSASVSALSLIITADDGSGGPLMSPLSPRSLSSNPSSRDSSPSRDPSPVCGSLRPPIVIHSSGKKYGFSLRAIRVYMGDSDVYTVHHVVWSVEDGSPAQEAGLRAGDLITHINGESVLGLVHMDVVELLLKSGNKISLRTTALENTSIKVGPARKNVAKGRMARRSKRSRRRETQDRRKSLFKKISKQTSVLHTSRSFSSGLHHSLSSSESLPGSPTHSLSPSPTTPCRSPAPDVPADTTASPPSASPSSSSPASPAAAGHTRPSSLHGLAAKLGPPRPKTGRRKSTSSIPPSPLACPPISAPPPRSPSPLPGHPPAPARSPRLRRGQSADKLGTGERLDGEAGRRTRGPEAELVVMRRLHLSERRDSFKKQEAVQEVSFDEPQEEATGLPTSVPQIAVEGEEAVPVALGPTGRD

[3] = target: T2, Myosin light chain kinase (Homo sapiens) (UniProt Q32MK0); test: Selectivity interaction (ProQinase) EUB0000171b MYLK3
T2 sequence (whole entry): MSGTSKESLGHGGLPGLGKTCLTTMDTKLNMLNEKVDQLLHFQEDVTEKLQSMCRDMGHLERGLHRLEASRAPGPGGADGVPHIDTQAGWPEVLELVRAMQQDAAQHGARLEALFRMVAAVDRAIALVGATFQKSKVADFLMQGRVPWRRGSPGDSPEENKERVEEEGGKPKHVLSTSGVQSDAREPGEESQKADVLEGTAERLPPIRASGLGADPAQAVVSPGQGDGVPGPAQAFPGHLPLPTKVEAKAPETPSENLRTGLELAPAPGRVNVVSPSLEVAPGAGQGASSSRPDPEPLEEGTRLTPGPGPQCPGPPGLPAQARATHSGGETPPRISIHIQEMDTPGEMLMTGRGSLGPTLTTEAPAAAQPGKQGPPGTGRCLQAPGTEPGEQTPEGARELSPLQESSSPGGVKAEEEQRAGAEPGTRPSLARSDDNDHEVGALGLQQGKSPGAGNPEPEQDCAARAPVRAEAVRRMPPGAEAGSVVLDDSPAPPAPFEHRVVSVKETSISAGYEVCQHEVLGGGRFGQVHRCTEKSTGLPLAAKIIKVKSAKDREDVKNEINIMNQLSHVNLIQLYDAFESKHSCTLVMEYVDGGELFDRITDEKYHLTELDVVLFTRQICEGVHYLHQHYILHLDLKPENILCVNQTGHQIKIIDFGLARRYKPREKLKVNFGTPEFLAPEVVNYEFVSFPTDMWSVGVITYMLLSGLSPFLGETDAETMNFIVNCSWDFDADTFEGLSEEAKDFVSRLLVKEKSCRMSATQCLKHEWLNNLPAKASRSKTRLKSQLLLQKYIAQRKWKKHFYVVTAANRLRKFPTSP

[4] = target: T3, Tyrosine-protein kinase JAK3 (Homo sapiens) (UniProt P52333); test: Selectivity interaction (Upstate Kinase Profiler service (Millipore)) EUB0000056c JAK3; settings: at 1 µM
T3 sequence (whole entry): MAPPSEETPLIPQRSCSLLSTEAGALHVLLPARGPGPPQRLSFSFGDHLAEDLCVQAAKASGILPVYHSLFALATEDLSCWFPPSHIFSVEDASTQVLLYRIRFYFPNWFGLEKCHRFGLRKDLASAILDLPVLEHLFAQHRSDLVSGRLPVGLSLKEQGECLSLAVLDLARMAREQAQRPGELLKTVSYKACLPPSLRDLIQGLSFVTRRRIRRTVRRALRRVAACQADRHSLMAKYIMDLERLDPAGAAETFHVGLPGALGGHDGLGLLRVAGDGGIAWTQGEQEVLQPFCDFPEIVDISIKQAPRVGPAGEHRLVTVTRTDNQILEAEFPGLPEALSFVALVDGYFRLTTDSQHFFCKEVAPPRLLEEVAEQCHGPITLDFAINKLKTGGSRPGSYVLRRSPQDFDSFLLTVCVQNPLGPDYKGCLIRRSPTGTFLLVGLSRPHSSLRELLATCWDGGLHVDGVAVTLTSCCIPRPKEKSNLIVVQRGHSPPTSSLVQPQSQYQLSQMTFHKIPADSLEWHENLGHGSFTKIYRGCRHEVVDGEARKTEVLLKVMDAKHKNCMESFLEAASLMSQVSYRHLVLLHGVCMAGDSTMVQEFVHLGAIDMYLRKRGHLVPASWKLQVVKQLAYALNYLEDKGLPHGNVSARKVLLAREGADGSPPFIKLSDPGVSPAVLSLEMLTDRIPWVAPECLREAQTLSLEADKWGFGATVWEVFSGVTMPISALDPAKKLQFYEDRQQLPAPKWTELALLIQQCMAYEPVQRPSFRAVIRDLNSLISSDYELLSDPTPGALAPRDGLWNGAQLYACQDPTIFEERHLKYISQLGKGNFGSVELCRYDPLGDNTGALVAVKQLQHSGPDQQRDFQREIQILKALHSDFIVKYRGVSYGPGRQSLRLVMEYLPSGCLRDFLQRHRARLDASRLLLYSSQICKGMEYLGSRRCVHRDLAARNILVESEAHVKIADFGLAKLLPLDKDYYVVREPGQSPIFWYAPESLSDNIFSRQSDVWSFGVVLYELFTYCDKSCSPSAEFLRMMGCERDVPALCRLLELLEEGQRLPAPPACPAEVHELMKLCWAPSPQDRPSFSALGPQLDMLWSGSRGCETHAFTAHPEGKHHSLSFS

[5] = target: Cyclin-dependent kinase 17 (Homo sapiens) (UniProt Q00537); test: Selectivity interaction (KinomeScan (DiscoverX)) EUB0000655a CDK17; settings: at 10 µM
Chain of Cyclin-dependent kinase 17 (Homo sapiens) (Q00537 whole entry, looked up): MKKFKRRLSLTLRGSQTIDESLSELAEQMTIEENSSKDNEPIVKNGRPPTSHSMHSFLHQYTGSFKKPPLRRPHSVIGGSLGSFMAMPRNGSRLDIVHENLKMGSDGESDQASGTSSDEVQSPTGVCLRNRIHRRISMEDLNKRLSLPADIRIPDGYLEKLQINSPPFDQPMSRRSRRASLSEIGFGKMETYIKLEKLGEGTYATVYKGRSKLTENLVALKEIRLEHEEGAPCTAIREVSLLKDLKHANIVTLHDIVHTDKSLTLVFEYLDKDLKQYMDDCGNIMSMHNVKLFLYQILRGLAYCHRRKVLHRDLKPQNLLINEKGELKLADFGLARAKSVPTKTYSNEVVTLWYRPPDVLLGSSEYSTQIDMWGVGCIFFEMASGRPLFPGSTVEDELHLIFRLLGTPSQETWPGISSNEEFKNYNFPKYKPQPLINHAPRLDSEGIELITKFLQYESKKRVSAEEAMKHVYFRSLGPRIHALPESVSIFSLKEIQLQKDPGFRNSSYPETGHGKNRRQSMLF

% of inhibition [1]: 13.3% | % of inhibition ([2]; at 0.01 µM): 11.4% | % of inhibition ([2]; at 0.04 µM): 9.3% | % of inhibition ([2]; at 0.2 µM): 2.6% | % of inhibition ([2]; at 1 µM): 4.8% | % of inhibition ([2]; at 5 µM): 32.1%
Structure (SMILES): CC[C@@H]1[C@H](F)C(=O)N[C@@H]1COc1nccc2cc(C(N)=O)c(OC)cc12 [ZIMLOVISERTIB]

% of control ([3]; at 1 µM): 89% | % of control ([3]; at 5 µM): 68%
Structure (SMILES): C=CC(=O)Nc1cccc(C(=O)Nc2ccc(Nc3cc(-c4[nH]c(SC)nc4C)ccn3)cc2)c1

% of inhibition [4]: 4%
Structure (SMILES): Cc1ccc(-c2ccc3c(ccc4sc5c(c43)NC[C@@H](C)NC5=O)n2)cn1

Structure (SMILES): CN(C)CCOc1ccc(-c2nc(-c3ccncc3)c(-c3ccc4c(c3)CC/C4=N\O)[nH]2)cc1
% of control [5]: 87%
